# Test results as given in the kinase profiling compilation of Christmann-Franck et al. (2016).
# What was measured:
# Assay in all cases: KINOMEscan competition binding
# ABL2 (human) = ABL2 (human) (UniProt P42684); settings: compound 10.0 µM
# [1] = system: FLT3 (human), P36888 [K663Q]; settings: compound 10.0 µM
# ADCK3 (human) = ADCK3 (human) (UniProt Q8NI60); settings: compound 10.0 µM
# MST1R (human) = MST1R (human) (UniProt Q04912); settings: compound 10.0 µM
# TAOK3 (human) = TAOK3 (human) (UniProt Q9H2K8); settings: compound 10.0 µM
# MLTK (human) = MLTK (human) (UniProt Q9NYL2); settings: compound 10.0 µM
# NEK2 (human) = NEK2 (human) (UniProt P51955); settings: compound 10.0 µM
# [2] = system: KIT (human), P10721 [V559D/V654A]; settings: compound 10.0 µM
# CDK2 (human) = CDK2 (human) (UniProt P24941); settings: compound 10.0 µM
# ACVRL1 (human) = ACVRL1 (human) (UniProt P37023); settings: compound 10.0 µM
# MYLK3 (human) = MYLK3 (human) (UniProt Q32MK0); settings: compound 10.0 µM
# PI4KB (human) = PI4KB (human) (UniProt Q9UBF8); settings: compound 10.0 µM
# [3] = system: KIT (human), P10721 [A829P]; settings: compound 10.0 µM
# FGR (human) = FGR (human) (UniProt P09769); settings: compound 10.0 µM
# RPS6KA2 KD2 (human) = RPS6KA2 KD2 (human) (UniProt Q15349)
# [4] = system: EGFR (human), P00533 [P753S; 747-752 del]; settings: compound 10.0 µM
# RPS6KA2 KD1 (human) = RPS6KA2 KD1 (human) (UniProt Q15349); settings: compound 10.0 µM
# LYN (human) = LYN (human) (UniProt P07948); settings: compound 10.0 µM
# MAPK6 (human) = MAPK6 (human) (UniProt Q16659); settings: compound 10.0 µM
# [5] = system: PIK3CA (human), P42336 [E545K]; settings: compound 10.0 µM
# HIPK3 (human) = HIPK3 (human) (UniProt Q9H422); settings: compound 10.0 µM
# MAP3K1 (human) = MAP3K1 (human) (UniProt Q13233); settings: compound 10.0 µM
# PTK2B (human) = PTK2B (human) (UniProt Q14289); settings: compound 10.0 µM
# CDK7 (human) = CDK7 (human) (UniProt P50613); settings: compound 10.0 µM
# CSNK1G1 (human) = CSNK1G1 (human) (UniProt Q9HCP0); settings: compound 10.0 µM
# WEE2 (human) = WEE2 (human) (UniProt P0C1S8); settings: compound 10.0 µM
# LTK (human) = LTK (human) (UniProt P29376); settings: compound 10.0 µM
# PIM2 (human) = PIM2 (human) (UniProt Q9P1W9); settings: compound 10.0 µM
# NEK3 (human) = NEK3 (human) (UniProt P51956); settings: compound 10.0 µM
# EPHA7 (human) = EPHA7 (human) (UniProt Q15375); settings: compound 10.0 µM
# [6] = system: PIK3CA (human), P42336 [E545A]; settings: compound 10.0 µM
# MAPK11 (human) = MAPK11 (human) (UniProt Q15759); settings: compound 10.0 µM
# OXSR1 (human) = OXSR1 (human) (UniProt O95747); settings: compound 10.0 µM
# SIK2 (human) = SIK2 (human) (UniProt Q9H0K1); settings: compound 10.0 µM
# ROCK1 (human) = ROCK1 (human) (UniProt Q13464); settings: compound 10.0 µM
# NTRK1 (human) = NTRK1 (human) (UniProt P04629); settings: compound 10.0 µM
# CDK3 (human) = CDK3 (human) (UniProt Q00526); settings: compound 10.0 µM
# NEK7 (human) = NEK7 (human) (UniProt Q8TDX7); settings: compound 10.0 µM
# HCK (human) = HCK (human) (UniProt P08631); settings: compound 10.0 µM
# MAPK9 (human) = MAPK9 (human) (UniProt P45984); settings: compound 10.0 µM
# ERBB4 (human) = ERBB4 (human) (UniProt Q15303); settings: compound 10.0 µM
# RPS6KA2 KD2 (human), sequence (Q15349 whole entry, looked up): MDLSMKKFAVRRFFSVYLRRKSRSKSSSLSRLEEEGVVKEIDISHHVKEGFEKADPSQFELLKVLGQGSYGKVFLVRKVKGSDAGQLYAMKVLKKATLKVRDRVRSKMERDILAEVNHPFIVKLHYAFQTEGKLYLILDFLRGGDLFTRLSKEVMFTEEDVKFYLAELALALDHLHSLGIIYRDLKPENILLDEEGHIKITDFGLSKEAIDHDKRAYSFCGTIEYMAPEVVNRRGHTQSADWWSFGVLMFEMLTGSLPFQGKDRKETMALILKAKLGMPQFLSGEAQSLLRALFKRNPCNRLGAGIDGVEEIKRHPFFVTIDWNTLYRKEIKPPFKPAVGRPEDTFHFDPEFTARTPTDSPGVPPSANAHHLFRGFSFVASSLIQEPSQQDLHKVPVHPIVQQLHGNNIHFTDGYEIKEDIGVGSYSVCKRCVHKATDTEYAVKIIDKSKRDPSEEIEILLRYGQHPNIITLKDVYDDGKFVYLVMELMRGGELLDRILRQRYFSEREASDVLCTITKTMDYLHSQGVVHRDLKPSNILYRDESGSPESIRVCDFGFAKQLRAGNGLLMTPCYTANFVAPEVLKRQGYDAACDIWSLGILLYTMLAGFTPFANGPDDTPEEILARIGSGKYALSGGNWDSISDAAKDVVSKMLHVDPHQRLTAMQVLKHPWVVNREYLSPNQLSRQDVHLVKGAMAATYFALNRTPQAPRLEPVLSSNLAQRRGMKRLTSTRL
# PTK2B (human), sequence (Q14289 whole entry, looked up): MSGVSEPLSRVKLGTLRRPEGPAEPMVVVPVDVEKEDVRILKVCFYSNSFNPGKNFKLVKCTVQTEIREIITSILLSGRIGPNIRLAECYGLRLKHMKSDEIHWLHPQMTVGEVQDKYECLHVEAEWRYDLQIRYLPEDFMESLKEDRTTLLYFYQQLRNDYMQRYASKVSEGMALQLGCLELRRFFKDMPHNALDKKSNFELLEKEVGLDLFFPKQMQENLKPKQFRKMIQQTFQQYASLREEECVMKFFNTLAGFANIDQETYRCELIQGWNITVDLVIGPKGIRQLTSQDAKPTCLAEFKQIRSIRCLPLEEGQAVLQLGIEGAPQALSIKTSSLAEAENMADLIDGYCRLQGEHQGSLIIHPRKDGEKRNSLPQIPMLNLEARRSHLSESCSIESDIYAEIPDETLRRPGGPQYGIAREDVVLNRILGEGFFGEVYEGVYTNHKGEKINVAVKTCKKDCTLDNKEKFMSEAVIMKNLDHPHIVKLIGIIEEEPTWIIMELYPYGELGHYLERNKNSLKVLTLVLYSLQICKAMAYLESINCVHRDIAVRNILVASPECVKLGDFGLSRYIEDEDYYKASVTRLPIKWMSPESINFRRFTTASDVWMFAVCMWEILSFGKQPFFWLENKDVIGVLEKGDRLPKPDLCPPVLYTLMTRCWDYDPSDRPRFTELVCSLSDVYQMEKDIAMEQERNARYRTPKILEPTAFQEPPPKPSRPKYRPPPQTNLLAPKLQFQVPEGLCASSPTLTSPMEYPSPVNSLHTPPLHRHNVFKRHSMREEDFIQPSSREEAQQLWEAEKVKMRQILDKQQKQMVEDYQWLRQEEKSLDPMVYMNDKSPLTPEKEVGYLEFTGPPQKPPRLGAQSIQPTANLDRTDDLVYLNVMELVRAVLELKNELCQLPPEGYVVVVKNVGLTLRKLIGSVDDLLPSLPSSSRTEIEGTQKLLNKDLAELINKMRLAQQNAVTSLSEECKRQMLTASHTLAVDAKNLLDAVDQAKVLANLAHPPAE
# HIPK3 (human), sequence (Q9H422 whole entry, looked up): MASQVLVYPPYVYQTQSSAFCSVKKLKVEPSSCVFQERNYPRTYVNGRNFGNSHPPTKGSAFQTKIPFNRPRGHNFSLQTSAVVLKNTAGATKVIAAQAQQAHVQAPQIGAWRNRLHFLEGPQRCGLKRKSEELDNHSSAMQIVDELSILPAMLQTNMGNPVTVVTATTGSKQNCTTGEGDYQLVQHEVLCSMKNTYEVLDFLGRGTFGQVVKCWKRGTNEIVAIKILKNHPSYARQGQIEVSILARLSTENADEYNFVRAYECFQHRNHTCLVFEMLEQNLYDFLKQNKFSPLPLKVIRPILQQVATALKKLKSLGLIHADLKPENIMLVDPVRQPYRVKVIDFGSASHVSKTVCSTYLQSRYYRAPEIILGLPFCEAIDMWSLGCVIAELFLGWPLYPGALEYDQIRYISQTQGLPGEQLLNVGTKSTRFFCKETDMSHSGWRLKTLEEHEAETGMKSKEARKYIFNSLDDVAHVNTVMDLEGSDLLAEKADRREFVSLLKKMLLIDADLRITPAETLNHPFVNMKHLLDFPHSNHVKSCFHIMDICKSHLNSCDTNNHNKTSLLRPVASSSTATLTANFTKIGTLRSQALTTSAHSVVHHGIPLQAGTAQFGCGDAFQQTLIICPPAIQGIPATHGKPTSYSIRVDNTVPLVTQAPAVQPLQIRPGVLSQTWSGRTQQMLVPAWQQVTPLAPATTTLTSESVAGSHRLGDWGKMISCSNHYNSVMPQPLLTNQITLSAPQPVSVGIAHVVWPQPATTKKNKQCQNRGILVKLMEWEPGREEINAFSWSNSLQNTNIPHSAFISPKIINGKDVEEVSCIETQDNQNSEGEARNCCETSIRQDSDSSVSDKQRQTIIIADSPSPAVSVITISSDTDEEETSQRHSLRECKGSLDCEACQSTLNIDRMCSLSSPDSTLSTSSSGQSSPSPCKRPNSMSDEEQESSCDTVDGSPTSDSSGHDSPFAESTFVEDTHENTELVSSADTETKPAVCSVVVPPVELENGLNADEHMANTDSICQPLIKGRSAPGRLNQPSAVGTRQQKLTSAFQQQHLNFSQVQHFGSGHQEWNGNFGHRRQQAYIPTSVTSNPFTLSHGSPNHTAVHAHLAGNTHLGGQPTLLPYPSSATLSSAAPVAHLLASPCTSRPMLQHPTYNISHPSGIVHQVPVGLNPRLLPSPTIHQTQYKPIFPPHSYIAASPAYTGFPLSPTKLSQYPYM
# MAPK6 (human), sequence (Q16659 whole entry, looked up): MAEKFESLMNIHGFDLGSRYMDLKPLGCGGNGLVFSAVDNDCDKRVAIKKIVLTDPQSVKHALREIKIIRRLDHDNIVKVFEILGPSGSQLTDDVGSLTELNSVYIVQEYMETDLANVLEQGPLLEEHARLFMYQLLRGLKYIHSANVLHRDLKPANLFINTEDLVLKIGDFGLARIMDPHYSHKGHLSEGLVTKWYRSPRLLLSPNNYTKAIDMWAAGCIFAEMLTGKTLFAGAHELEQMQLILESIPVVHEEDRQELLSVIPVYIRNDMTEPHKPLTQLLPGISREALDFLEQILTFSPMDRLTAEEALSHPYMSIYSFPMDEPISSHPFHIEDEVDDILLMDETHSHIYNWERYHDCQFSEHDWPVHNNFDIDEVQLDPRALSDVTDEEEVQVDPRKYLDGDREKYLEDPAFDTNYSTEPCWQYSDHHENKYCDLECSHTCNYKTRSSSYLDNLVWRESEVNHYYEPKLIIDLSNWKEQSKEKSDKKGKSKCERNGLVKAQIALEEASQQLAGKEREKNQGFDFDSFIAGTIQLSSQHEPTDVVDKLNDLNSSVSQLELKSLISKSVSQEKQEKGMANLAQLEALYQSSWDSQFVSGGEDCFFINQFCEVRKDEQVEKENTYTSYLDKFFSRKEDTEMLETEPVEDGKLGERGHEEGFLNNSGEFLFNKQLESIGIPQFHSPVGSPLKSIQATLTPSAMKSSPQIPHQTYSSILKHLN
# KIT (human), P10721 [V559D/V654A], sequence (P10721 whole entry V559D/V654A, looked up): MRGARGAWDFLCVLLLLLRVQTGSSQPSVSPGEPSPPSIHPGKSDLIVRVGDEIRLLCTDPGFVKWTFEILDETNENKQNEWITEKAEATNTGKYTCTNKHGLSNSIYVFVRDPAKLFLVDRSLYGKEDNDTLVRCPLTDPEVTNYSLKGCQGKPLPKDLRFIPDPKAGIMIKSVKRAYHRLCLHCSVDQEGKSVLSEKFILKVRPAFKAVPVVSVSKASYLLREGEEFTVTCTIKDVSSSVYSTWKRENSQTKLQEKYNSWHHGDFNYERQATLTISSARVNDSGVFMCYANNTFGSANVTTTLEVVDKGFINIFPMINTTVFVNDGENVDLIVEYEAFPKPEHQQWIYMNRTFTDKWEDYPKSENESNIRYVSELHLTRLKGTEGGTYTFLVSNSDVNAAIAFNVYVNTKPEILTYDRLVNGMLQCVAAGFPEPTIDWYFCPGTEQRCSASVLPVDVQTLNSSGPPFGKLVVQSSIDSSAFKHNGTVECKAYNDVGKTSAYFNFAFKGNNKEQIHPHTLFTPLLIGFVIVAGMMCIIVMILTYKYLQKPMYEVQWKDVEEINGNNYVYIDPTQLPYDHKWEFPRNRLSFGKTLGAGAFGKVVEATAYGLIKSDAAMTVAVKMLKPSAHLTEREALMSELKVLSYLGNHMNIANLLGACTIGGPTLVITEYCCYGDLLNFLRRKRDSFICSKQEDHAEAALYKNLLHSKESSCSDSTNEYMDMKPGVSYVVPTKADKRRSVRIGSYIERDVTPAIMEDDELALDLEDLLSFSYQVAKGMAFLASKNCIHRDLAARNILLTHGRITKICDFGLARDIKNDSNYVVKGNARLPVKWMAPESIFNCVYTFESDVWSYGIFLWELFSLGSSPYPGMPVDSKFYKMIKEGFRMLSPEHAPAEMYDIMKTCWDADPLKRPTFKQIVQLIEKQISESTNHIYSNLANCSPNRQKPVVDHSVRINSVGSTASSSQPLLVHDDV
# CDK3 (human), sequence (Q00526 whole entry, looked up): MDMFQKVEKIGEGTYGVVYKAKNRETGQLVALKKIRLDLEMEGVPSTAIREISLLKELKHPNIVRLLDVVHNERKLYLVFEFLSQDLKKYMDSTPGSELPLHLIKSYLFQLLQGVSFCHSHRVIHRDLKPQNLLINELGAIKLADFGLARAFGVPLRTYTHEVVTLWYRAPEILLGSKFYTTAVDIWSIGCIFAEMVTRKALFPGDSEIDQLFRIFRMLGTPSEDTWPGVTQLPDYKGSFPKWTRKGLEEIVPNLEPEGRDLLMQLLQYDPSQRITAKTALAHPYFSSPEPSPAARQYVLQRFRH
# RPS6KA2 KD1 (human), sequence (Q15349 whole entry, looked up): as the sequence (Q15349 whole entry, looked up) above
# KIT (human), P10721 [A829P], sequence (P10721 whole entry A829P, looked up): as the sequence (P10721 whole entry V559D/V654A, looked up) above, with D559V, A654V, A829P counted along it
smiles,measurement,setting,value
COc1cc(C(=O)N2CCC(N3CCN(C)CC3)CC2)ccc1Nc1ncc2c(n1)N(C)c1ccccc1C(=O)N2C,"kinase still bound, per cent of control",ABL2 (human),97%
same,"kinase still bound, per cent of control",[1],97%
same,"kinase still bound, per cent of control",ADCK3 (human),71%
same,"kinase still bound, per cent of control",MST1R (human),98%
same,"kinase still bound, per cent of control",TAOK3 (human),24%
same,"kinase still bound, per cent of control",MLTK (human),99%
same,"kinase still bound, per cent of control",NEK2 (human),100%
same,"kinase still bound, per cent of control",[2],100%
same,residual activity,CDK2 (human),100%
same,"kinase still bound, per cent of control",ACVRL1 (human),100%
same,"kinase still bound, per cent of control",MYLK3 (human),100%
same,"kinase still bound, per cent of control",PI4KB (human),95%
same,"kinase still bound, per cent of control",[3],100%
same,"kinase still bound, per cent of control",FGR (human),84%
same,Kd,RPS6KA2 KD2 (human),1000 nM
same,"kinase still bound, per cent of control",RPS6KA2 KD2 (human); compound 10.0 µM,7.5%
same,"kinase still bound, per cent of control",[4],84%
same,"kinase still bound, per cent of control",RPS6KA2 KD1 (human),83%
same,"kinase still bound, per cent of control",LYN (human),100%
same,"kinase still bound, per cent of control",MAPK6 (human),100%
same,"kinase still bound, per cent of control",[5],100%
same,"kinase still bound, per cent of control",HIPK3 (human),89%
same,"kinase still bound, per cent of control",MAP3K1 (human),95%
same,"kinase still bound, per cent of control",PTK2B (human),78%
same,residual activity,CDK7 (human),86%
same,"kinase still bound, per cent of control",CSNK1G1 (human),100%
same,"kinase still bound, per cent of control",WEE2 (human),100%
same,"kinase still bound, per cent of control",LTK (human),32%
same,"kinase still bound, per cent of control",PIM2 (human),100%
same,"kinase still bound, per cent of control",NEK3 (human),100%
same,"kinase still bound, per cent of control",EPHA7 (human),97%
same,"kinase still bound, per cent of control",[6],98%
same,"kinase still bound, per cent of control",MAPK11 (human),60%
same,"kinase still bound, per cent of control",OXSR1 (human),88%
same,"kinase still bound, per cent of control",SIK2 (human),98%
same,"kinase still bound, per cent of control",ROCK1 (human),100%
same,"kinase still bound, per cent of control",NTRK1 (human),69%
same,residual activity,CDK3 (human),100%
same,"kinase still bound, per cent of control",NEK7 (human),100%
same,"kinase still bound, per cent of control",HCK (human),100%
same,"kinase still bound, per cent of control",MAPK9 (human),94%
same,"kinase still bound, per cent of control",ERBB4 (human),100%
